Series [1] concerns the target T1, Motilin receptor (Homo sapiens, UniProt O43193). Put plainly: Agonist activity at human recombinant motilin receptor expressed in HEK293 cells by calcium mobilization-based FLIPR assay. The class given is functional, cell-based. (Calcium flux is commonly read through the fluorescence of an indicator in the cells.)
The target in series [2] is T1, Motilin receptor. As to the kind of experiment: Agonist activity at human recombinant motilin receptor expressed in CHO cells by calcium mobilization-based FLIPR assay. The class given is functional, cell-based.
In series [3] the target is T1, Motilin receptor. As to the kind of experiment: Intrinsic activity at human recombinant motilin receptor expressed in CHO cells by calcium mobilization-based FLIPR assay relative to motilin. The series is classed as functional, cell-based.
Series [4] relates to Stomach. Put plainly: Increase in electric field stimulated contractile response in New Zealand White rabbit gastric antrum at 10 uM pre-incubated for 15 mins. The class given is functional, Oryctolagus cuniculus.
Series [5] is described as follows: Half life in New Zealand White rabbit gastric antrum at 10 uM. The class given is ADME, tissue-based, Oryctolagus cuniculus, Stomach.
Series [6] is described as follows: Selectivity for human recombinant motilin receptor over ghrelin receptor in FLIPR assay.
Series [7] addresses Growth hormone secretagogue receptor type 1 (Homo sapiens) (UniProt Q92847). Put plainly: Activity at ghrelin receptor in human recombinant cells by calcium mobilization-based FLIPR assay.
For series [8], the system named is Stomach. Put plainly: Increase in electric field stimulated contractile response in New Zealand White rabbit gastric antrum at 0.3 uM preincubated for 15 mins. The series is classed as functional, Oryctolagus cuniculus.
Series [9] is described as follows: Half life in New Zealand White rabbit gastric antrum at 0.3 uM. The class given is ADME, tissue-based, Oryctolagus cuniculus, Stomach.
Series [10] relates to Stomach. As to the kind of experiment: Increase in electric field stimulated contractile response in New Zealand White rabbit gastric antrum at 3 uM pre-incubated for 15 mins. The series is classed as functional, Oryctolagus cuniculus.
Series [11] can be described thus: Half life in New Zealand White rabbit gastric antrum at 3 uM. The series is classed as ADME, tissue-based, Oryctolagus cuniculus, Stomach.

Broadly, the EC50 is the midpoint of the concentration-response curve. One may read the half-life as the time in which the quantity being followed falls by half.

T1 sequence (O43193 whole entry): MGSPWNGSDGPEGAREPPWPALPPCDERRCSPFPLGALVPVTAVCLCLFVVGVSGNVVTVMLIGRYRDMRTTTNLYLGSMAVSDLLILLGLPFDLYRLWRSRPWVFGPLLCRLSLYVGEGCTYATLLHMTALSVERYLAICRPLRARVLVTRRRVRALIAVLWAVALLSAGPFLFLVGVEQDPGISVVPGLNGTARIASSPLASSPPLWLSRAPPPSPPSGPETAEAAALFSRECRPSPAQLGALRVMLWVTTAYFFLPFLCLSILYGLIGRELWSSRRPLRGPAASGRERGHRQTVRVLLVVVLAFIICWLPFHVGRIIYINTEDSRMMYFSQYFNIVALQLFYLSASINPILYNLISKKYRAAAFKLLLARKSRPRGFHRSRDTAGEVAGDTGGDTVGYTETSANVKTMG
Sequence of Growth hormone secretagogue receptor type 1 (Homo sapiens) (Q92847 whole entry, looked up): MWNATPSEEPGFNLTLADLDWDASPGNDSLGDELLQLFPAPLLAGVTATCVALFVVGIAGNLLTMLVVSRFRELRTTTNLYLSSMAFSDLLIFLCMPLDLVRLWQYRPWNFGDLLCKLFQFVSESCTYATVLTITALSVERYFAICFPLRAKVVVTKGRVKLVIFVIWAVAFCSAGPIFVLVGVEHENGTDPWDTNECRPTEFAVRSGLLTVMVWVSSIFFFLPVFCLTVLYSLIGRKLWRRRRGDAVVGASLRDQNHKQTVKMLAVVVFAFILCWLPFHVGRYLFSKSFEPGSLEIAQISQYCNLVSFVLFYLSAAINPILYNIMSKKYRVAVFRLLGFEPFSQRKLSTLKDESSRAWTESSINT

In the case of `COc1cccc(CCN(Cc2ccccc2-c2ccc(CN3CCNCC3)cc2)C(=O)Cc2ccccc2)c1`, the concentration for a half-maximal effect (EC50) in series [1] was 1000 nM. For `COCCCN(Cc1ccccc1-c1ccc(CN2CCOCC2)cc1)C(=O)Cc1ccccc1`, in series [2], the EC50 is over 12600 nM. Turning to `COCCCN(Cc1ccccc1-c1ccc(CN(C)CCN(C)C)cc1)C(=O)Cc1ccccc1`, the EC50 in series [2] is 3160 nM. Further, in series [3], the Activity came to 0.4. For `COCCCN(Cc1ccccc1-c1ccc(CN2CCNCC2)cc1)C(=O)Cc1ccccc1` the same measures were 794 nM and 0.7. Turning to `COc1cccc(CCN(Cc2ccccc2-c2ccc(CN3C[C@@H](C)N[C@@H](C)C3)cc2)C(=O)NC2CCCCC2)c1`, the Activity in series [3] turned out to be 1; in series [4] it was 182%. Further, the half-life at 10 µM in series [5] worked out at 39 min. The fold change (FC) in series [6] is 10. Also, in [7], the EC50 is 126 nM. On to `COCCCN(Cc1ccccc1-c1ccc(CN2CCNCC2)cc1)S(=O)(=O)c1ccc(F)cc1`, for which, in series [1], the EC50 was 631 nM.

Turning to `COc1cccc(CCN(Cc2ccccc2-c2ccc(CC3CCNCC3)cc2)C(=O)NC2CCCCC2)c1`, in series [2], the EC50 was 398 nM. Besides, the Activity in [3] came to 0.6. For the compound `COCCCN(Cc1ccccc1-c1ccc(CN2CCNCC2)cc1)C(C)=O`, the EC50 in series [1] was 631 nM. For `CC[C@H](C)[C@H](NC(=O)[C@@H]1CCCN1C(=O)[C@@H](NC(=O)[C@@H](N)Cc1ccccc1)C(C)C)C(=O)N[C@@H](Cc1ccccc1)C(=O)N[C@H](C(=O)N[C@@H](Cc1ccc(O)cc1)C(=O)NCC(=O)N[C@@H](CCC(=O)O)C(=O)N[C@@H](CC(C)C)C(=O)N[C@@H](CCC(N)=O)C(=O)N[C@@H](CCCN=C(N)N)C(=O)N[C@@H](CCSC)C(=O)N[C@@H](CCC(N)=O)C(=O)N[C@@H](CCC(=O)O)C(=O)N[C@@H](CCCCN)C(=O)N[C@@H](CCC(=O)O)C(=O)N[C@@H](CCCN=C(N)N)C(=O)N[C@@H](CC(N)=O)C(=O)N[C@@H](CCCCN)C(=O)NCC(=O)N[C@@H](CCC(N)=O)C(=O)O)[C@@H](C)O` [MOTILIN], the Activity in series [8] was 506%. The compound also yielded a half-life at 0.3 µM in series [9] of 9 min. For the compound `COCCCN(Cc1ccccc1-c1ccc(CN2CCCCC2)cc1)C(=O)Cc1ccccc1`, the EC50 in series [2] was over 12600 nM. On the same count and under the same terms, the value for `COc1cccc(CCN(Cc2ccccc2-c2ccc(CCN3CCNCC3)cc2)C(=O)NC2CCCCC2)c1` was over 12600 nM. Consider `COCCCN(Cc1ccccc1-c1ccc(CN2CCN(C)CC2)cc1)C(=O)Cc1ccccc1`, for which, in series [2], the EC50 was over 12600 nM.

In the case of `COCCCN(Cc1ccccc1-c1ccc(CN2CCN(C(C)=O)CC2)cc1)C(=O)Cc1ccccc1`, the EC50 in [2] was over 12600 nM. As for `COCCCN(Cc1ccccc1-c1ccc(C(=O)N2CCNCC2)cc1)C(=O)Cc1ccccc1`, the concentration giving a half-maximal response (EC50) in [2] was over 3160 nM. Regarding `O=C(NC1CCCCC1)N(CCc1ccccc1)Cc1ccccc1-c1cccc(CN2CCNCC2)c1`, in series [1], the EC50 is 1580 nM. With `COc1cccc(CCN(Cc2ccccc2-c2ccc(N3CCNCC3)cc2)C(=O)NC2CCCCC2)c1`, the EC50 in [2] was 5010 nM. The Activity in series [3] was 0.9. In the case of `CC[C@H]1OC(=O)[C@H](C)[C@@H](O[C@H]2C[C@@](C)(OC)[C@@H](O)[C@H](C)O2)[C@H](C)[C@@H](O[C@@H]2O[C@H](C)C[C@H](N(C)C)[C@H]2O)[C@](C)(O)C[C@@H](C)C(=O)[C@H](C)[C@@H](O)[C@]1(C)O` [ERYTHROMYCIN], the Activity in [10] came to 490%. Also, the half-life at 3 µM in series [11] worked out at 23 min. Consider `COCCCN(Cc1ccccc1-c1ccc(CN2CCNCC2)cc1)C(=O)NC1CCCCC1`, for which the concentration for a half-maximal effect (EC50) in series [1] was 501 nM. `COc1cccc(CCN(Cc2ccccc2-c2ccc(CN3CCNCC3)cc2)C(=O)NC2CCCCC2)c1`: the EC50 was 100 nM in [1] and 50.1 nM in [2]. The Activity in series [3] is 0.9.

Consider `COc1cccc(CCNCc2ccccc2-c2ccc(CN3CCNCC3)cc2)c1`, for which the EC50 in [1] was 5010 nM.

The values above are taken from ChEMBL document CHEMBL1141008, “Identification of small molecule agonists of the motilin receptor” (Bioorg Med Chem Lett, 2008).
